Measured values as given in patent US8492105B2, “Screening method for an insulin resistance improving agent or a therapeutic agent for diabetes” (Fujitsu Limited, priority 2009, dated 2013).

Assays:
[1] = biological target: T1, phosphorylation of Ser727 of STAT3 by ERK2 (Homo sapiens, UniProt P28482); test: Phosphorylation inhibitory activity test by western blotting (anti-pS727 STAT); assay type: biochemical; details: 1 mM 5-iodotubercidin (final 1.14 mM), 22% DMSO (Sample 3); 30° C. 130 min; vs control Sample 1
T1 construct: purchased Biosource Inc. (Active ERK); Abcam Inc. (STAT3)
T1 sequence (P28482 whole entry): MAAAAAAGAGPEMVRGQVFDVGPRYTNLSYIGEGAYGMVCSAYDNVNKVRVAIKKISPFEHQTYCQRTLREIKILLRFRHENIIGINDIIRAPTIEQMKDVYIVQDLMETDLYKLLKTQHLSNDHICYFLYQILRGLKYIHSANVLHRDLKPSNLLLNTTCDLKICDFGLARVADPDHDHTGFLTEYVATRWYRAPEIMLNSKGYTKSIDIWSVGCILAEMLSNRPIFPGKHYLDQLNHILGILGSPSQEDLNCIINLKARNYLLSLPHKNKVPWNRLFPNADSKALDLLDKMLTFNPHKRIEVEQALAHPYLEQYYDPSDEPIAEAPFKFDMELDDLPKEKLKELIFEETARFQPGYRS
Procedure: The following ingredients were used at a composition indicated in Table 1 to prepare a reaction liquid: 5× reaction buffer (250 mM tris-HCl (pH 7.5), 50 mM magnesium chloride, 0.1% by mass bovine serum albumin (BSA) and 5 mM dithiothreitol (DTT)), Active ERK solution (0.1 mg/mL) (product of Biosource Inc.), STAT3 solution (0.2 mg/mL) (product of Abcam Inc.) and distilled water.
Also, 5-iodotubercidin (product of Calbiochem Inc.) was used as a control compound.
The 5-iodotubercidin was suspended in DMSO so that the final concentration thereof was adjusted to 5 mM.
Furthermore, distilled water was added to the samples so as to appropriately adjust the volume thereof, whereby reaction mixtures were obtained.
Each of the reaction mixtures was incubated at 30° C. for 130 min to allow Active ERK2 to phosphorylate the Ser727 of the STAT3.
After that, to terminate the phosphorylation, 0.5M ethylenediamine tetraacetate (EDTA) was added in an amount of 2.75 μL to the reaction mixtures serving as a control (Table 2: Sample 1 or 2), and was added in an amount of 5.5 μL to the reaction mixture containing the 5-iodotubercidin (Table 2: Sample 3) or the reaction mixture containing the peptide (Table 2: Sample 4). […]

db/db mice = test: Efficacy test, 28-day daily intraperitoneal injection (blood glucose, insulin, HOMA-IR); assay type: in vivo, mouse
Procedure: Fifty mice described in Test Example 2 were used as a test animal.
Specifically, 3.8 mg of the above peptide was dissolved in 4.75 mL of physiological saline to prepare a 0.8 mg/mL peptide solution (hereinafter may be referred to as “peptide solution 2”). Then, 1.75 mL of the peptide solution 2 was dissolved in 3.5 mL of physiological saline to prepare a 0.27 mg/mL peptide solution (hereinafter may be referred to as “peptide solution 3”). Further, 1 mL of the peptide solution 3 was dissolved in 2 mL of physiological saline to prepare a 0.09 mg/mL peptide solution (hereinafter may be referred to as “peptide solution 4”).
A metformin solution used for an activity control group was prepared as follows. Specifically, 120 mg of metformin (product of Sigma Co.) was dissolved in 4 mL of physiological saline to prepare a 30 mg/mL metformin solution.
The efficacy test was conducted using the following five administration groups: a solvent (physiological saline) control administration group, a 150 mg/kg metformin administration group (serving as an activity control group), a 4.00 mg/kg peptide (expressed by SEQ ID No. 1) administration group, a 1.33 mg/kg peptide administration group and a 0.44 mg/kg peptide administration group. Each administration group had 10 mice.
The above-prepared solutions were intraperitoneally injected every day to all of the mice of the test groups at the corresponding doses given in the following Table 4 for 28 days. The body weight, the fasting blood glucose level, the postprandial blood glucose level and the fasting blood insulin level were measured by the below-described measuring method according to the measurement schedule given in the following Table 5.
The calculating method for the HOMA-IR value is described below.
To measure the fasting blood glucose level and blood insulin level, 50 μL of blood was sampled from the postorbital region on Day 0, Day 14 and Day 28 after administration. The serum was obtained in the same manner as in Test Example 2.
The postprandial blood glucose level was measured using blood sampled from the tail vein on Day 1, Day 13, and Day 27 after administration.
The blood glucose level and blood insulin level were measured in the same manner as in Test Example 2.
The insulin resistance was determined by the HOMA (homeostasis model assessment) method using the following calculation formula. HOMA-IR (index of insulin resistance)=fasting insulin level (μU/mL)×fasting blood glucose level (mmol/L)/22.5
All of the values are indicated as “average value±average error.” The important differences between the groups and within each group were evaluated through one-way variance analysis and Dunnett's multiple comparison. The p-values equal to or lower than 0.05 were regarded as statistically significant.

[2] = Metformin 150 mg/kg group, Day 0
[3] = Metformin 150 mg/kg intraperitoneal every day, Day 28
[4] = Metformin 150 mg/kg intraperitoneal every day, Day 28 minus Day 0

Compound | band of STAT3 whose Ser727 has been phosphorylated (western blotting) [1] | Fasting blood insulin level (db/db mice; [2]) [ng/mL] | HOMA-IR value (db/db mice; [2]) | Fasting blood glucose level (db/db mice; Metformin 150 mg/kg group, Day 0, average ± average error, 10 mice) [mM] | Postprandial blood glucose level (db/db mice; Metformin 150 mg/kg group, Day 1, average ± average error, 10 mice) [mM] | Postprandial blood glucose level (db/db mice; Metformin 150 mg/kg intraperitoneal every day, Day 13) [mM] | Fasting blood glucose level (db/db mice; Metformin 150 mg/kg intraperitoneal every day, Day 14) [mM] | Postprandial blood glucose level (db/db mice; Metformin 150 mg/kg intraperitoneal every day, Day 27) [mM] | Fasting blood glucose level (db/db mice; [3]) [mM] | Fasting blood insulin level (db/db mice; [3]) [ng/mL] | HOMA-IR value (db/db mice; Metformin 150 mg/kg intraperitoneal every day, Day 28, # p < 0.05 vs. solvent control group) | Increment in fasting blood glucose level (db/db mice; [4]) [mM] | Increment in fasting blood insulin level (db/db mice; [4]) [ng/mL] | Increment in fasting blood glucose level (db/db mice; Metformin 150 mg/kg intraperitoneal every day, Day 28 minus Day 0, listed as metformin) [mM] | Increment in postprandial blood glucose level (db/db mice; Metformin 150 mg/kg intraperitoneal every day, Day 28 minus Day 0 as printed, # p < 0.05 vs. solvent control group) | suppression of increase in fasting blood glucose level (significance) (db/db mice; Metformin 150 mg/kg, Day 0 to Day 28, vs solvent control group) | HOMA-IR value (index of insulin resistance), change (db/db mice; Metformin 150 mg/kg, Day 28)
5-iodotubercidin | lower in intensity than the band detected in the control | – | – | – | – | – | – | – | – | – | – | – | – | – | – | – | –
CN(C)C(=N)N=C(N)N [Metformin, metformin] | – | 8.81 ± 1.33 | 139.4 ± 22.7 | 16.3 ± 1.3 | 22.5 ± 2.0 | 25.2 ± 2.0 | 19.3 ± 1.5 | 28.1 ± 1.6 | 22.0 ± 3.1 | 4.06 ± 0.84 | 79.6 ± 17.7^# | 5.8 ± 2.4 | -4.94 ± 1.77 | 5.8 ± 2.4 | 4.3 ± 2.2^# mM | not statistically significant | significantly decreased
